The subject of data set [1] is arachidonic acid-induced ear swelling. As to the kind of experiment: Topical arachidonic acid-induced ear swelling model in mice (topical administration). The class given is in vivo, Male ICR mice. The procedure: Diethyl(2-cyanoethyl)phosphonate, was obtained from Sigma-Aldrich and used in this experiment.
The test compound, indomethacin (positive control), and vehicle (acetone:ethanol/1:1) were evaluated for anti-inflammatory activity in a topical arachidonic acid-induced ear swelling model in mice.
Male ICR mice weighing 22±2 g were used and randomly divided; the test compound and vehicle control had 10 mice, and indomethacin had 5 mice. Arachidonic Acid (0.5 mg in 20 μl of acetone:ethanol/1:1) was applied topically to the anterior and posterior surfaces of the right ear of each mice. Test substances (in vehicle) and vehicle, as listed in Table 1 were similarly applied 30 min before and 15 min after arachidonic acid application. The thickness of the right ear and the left ear was measured and the difference calculated as an indication of the inflammation in the right ear. Ear swelling was measured by a Dyer model micrometer gauge at 60 and 90 minutes after arachidonic acid application as an index of inflammation. Percent inhibition was calculated according to the formula: Ic−It/Ic×100, where Ic and It refers to increase of ear thickness (mm) in control and treated mice, respectively. An ANOVA was done, and if p<0.05, a Dunnett's t test was employed to calculate significant difference between vehicle control and test compound treated groups. […]

Data set [2] has the same test system. As to the kind of experiment: Arachidonic acid-induced ear swelling in mice (intraperitoneal administration). The settings on record: measured at 90 minutes. The data set is classed as in vivo. The procedure: The protocols of this experiment were similar to Example 3, except the following differences. Test substance diethyl(2-cyanoethyl)phosphonate was dissolved in PBS to generate 1, 3 and 10 mg/mL testing solutions. Vehicle (PBS) at 10 mL/kg and diethyl(2-cyanoethyl)phosphonate at 10 mL/kg (10, 30, and 100 mg/kg) were administered intraperitoneally at 1 hour, and again 15 minutes before arachidonic acid (0.5 mg/ear) challenge. The positive control dexamethasone was administered orally 3 hours before arachidonic acid.
An ANOVA was done, and if p<0.05, a Dunnett's t test was employed to calculate significant difference between vehicle control and treated groups. Significance is set at P<0.05 level.
An ANOVA was done, and if p<0.05, a Dunnett's t test was employed to calculate significant difference between vehicle control and test compound treated groups. A pairwise Student's t test was used to calculate differences between the dexamethasone group and the control group. Significance is set at P<0.05 level.

In data set [3] the test system is tail flick response to heat stimulus (49° C. water bath). As to the kind of experiment: Tail flick test in mice (oral administration). The data set is classed as in vivo. The method, then: Tail flick test is a test of the pain response in animals. Tail flick test is used in basic pain research and to measure the effectiveness of analgesics, by observing the tail flick reaction to heat in an animal. This test assesses the nociceptive response to a local pain stimulus, and the ability of a drug to inhibit this response.
Vehicle control (water) and test compound diethyl(2-cyanoethyl)phosphonate in water were administered by oral gavage to mice with a volume of 10 mL/kg, twice, at 60 and 15 minutes before the first tail flick measurement. The test compound was administered at a dosage of 10, 30, or 100 mg/kg in water. The positive control compound morphine was administered by subcutaneous injection at 8 mg/kg with a volume of 8 mL/kg, at 15 minutes before the first tail flick measurement. Each group had 10 mice.
The response of mice to heat stimulus was evaluated by measuring the time of tail-flick or tail-flick latency from 49° C. water bath. Briefly, the animal was placed in a restrainer with its tail hanging down. Approximately 2 inches of the tail was immersed in a beaker of water at 38±1° C. for about 30 seconds, and this was done twice to acclimate the animal to the procedure.
Subsequently, approximately 2 inches of the tail was immersed in a beaker of water at 49±1° C., at which point a timer was started.
Tail flick measurements were made 60, 80, 100, and 120 minutes post administration of the first dosage of test compound. An ANOVA was done, and if p<0.05, a Dunnett's t test was employed to calculate significant difference between vehicle control and test compound treated groups. A pairwise Student's t test was used to calculate differences between the morphine group and the control group. […] Analysis with p-values <0.05 is considered significant.

Data set [4] deals with formalin-induced paw licking. As to the kind of experiment: Formalin test in mice (oral administration). The class given is in vivo, Male CD-1 mice. The method, then: Formalin test is a model of continuous pain resulting from formalin-induced tissue injury. Nociceptive and inflammatory pain was induced by injection of a dilute formalin solution into the paw, resulting in nocifensive behavior including paw flinching. The formalin model encompasses inflammatory, neurogenic, and central mechanism of pain. The early phase of pain (from 0 to about 10 minutes) is due to nociceptive mechanism and the late phase of pain (from 10-40 minutes) is due to a combination of inflammatory pain and nociceptive mechanism. Pain behavior is assessed using manual paw licking measurements. The endpoints of the study are the number of paw licking events. (Hunskaar et al., Pain, 30:103-114, 1987; Li et al., Molecular Pain, 6:11, 2010)
Male CD-1 mice, about 34 g, were used in the study. Mice had free access to food and water, were maintained on a 12 hour: 12 hour light/dark schedule for the entire duration of the study, and housed in soft bedding five per cage.
Immediately prior to testing (at time 0), mice were restrained in a cloth and injected with 20 μL of a 5% formalin solution, subcutaneously into the dorsal surface of the left hind paw. Vehicle control (n=10, water) and test compound diethyl(2-cyanoethyl)phosphonate (n=9, in water) and were administered by oral gavage with a volume of 10 mL/kg to mice. The amounts of test compound were 10, 30, or 100 mg/kg per dose.
Positive control morphine was administered by subcutaneous injection at 4 mg/kg with a volume of 4 mL/kg to mice (n=10). […] The purpose of morphine is not to serve as a comparison with the test compound.
Morphine was subcutaneously administered once 15 minutes before formalin injection. The test compounds and vehicle control were orally administered twice (BID), at 60 and 15 minutes before formalin injection at time zero.
Following formalin injection, animals were placed in individual cages, and manually observed for 60 minutes. The licking events were recorded in five minute intervals continuously for a total of 60 minutes.
The number of licking events per minute was calculated between 0-10 minutes and 10-40 minutes for vehicle, positive control, and test compound. An ANOVA was done, and if p<0.05, a Dunnett's t test was employed to calculate significant difference between vehicle control and test compound treated groups. A pairwise Student's t test was used to calculate differences between the morphine group and the control group. Significance is set at P<0.05 level.

Data set [5] has as its system formalin-induced paw licking. The procedure: The test compound diethyl(2-cyanoethyl)phosphonate (375 mM in vehicle, n=16) and vehicle control (acetone:ethanol 1:1, n=16) were administered topically by submerging the mouse left hind paw in the respective solution for about 30 seconds. The paw was then withdrawn and wiped with tissue to avoid excess dermal drying.
Positive control morphine was administered by subcutaneous injection at 4 mg/kg with a volume of 4 mL/kg to mice (n=16).
Morphine was subcutaneously administered once 15 minutes before formalin injection. The test compounds and vehicle control were topically administered twice (BID), at 90 and 15 minutes before formalin injection.
Following formalin injection, animals were placed in individual cages, and manually observed for 60 minutes. The licking events were recorded in five minute intervals continuously for a total of 40 minutes.
The number of licking events per minute was calculated between 0-10 minutes and 10-40 minutes for vehicle, positive control, and test compound. A two-sample t-test was done to compare the vehicle group with the test compound group. Significance is set at P<0.05 level. The same statistics were done comparing the vehicle group with the positive control group.

Data set [6] deals with IL-6, TNFα, IFNγ, MIP-2 and RANTES. As to the kind of experiment: Pro-inflammatory cytokine release in rat challenged in vivo with lipopolysaccharide. The conditions noted are these: given orally to rat, then lipopolysaccharide challenge in vivo.

Read-outs that look alike come from different tables or passages of the source.

With `CCOP(=O)(CCC#N)OCC` [Diethyl (2-cyanoethyl) phosphonate, Diethyl(2-cyanoethyl)phosphonate], the “Anti-inflammatory activity in mouse ear swelling model” value in data set [1] (applied topically, inflammation induced by arachidonic acid) is “anti-inflammatory”. The “% Inhibition of ear swelling” value in data set [1] (topical, 375 mM in acetone:ethanol (1:1), 20 μL (1.4 mg/ear) applied twice, 90 minutes after arachidonic acid) was 55%; in data set [2] (10 mg/kg intraperitoneally at 1 hour and 15 minutes before arachidonic acid), −8%; in data set [2] (30 mg/kg intraperitoneally at 1 hour and 15 minutes before arachidonic acid), 0%; in data set [2] (100 mg/kg intraperitoneally at 1 hour and 15 minutes before arachidonic acid), 34%; in data set [2] (100 mg/kg intraperitoneally at 1 hour and 15 minutes before arachidonic acid, listed as tested compound), 37%. The “Tail flick latency compared with vehicle-treated mice” value in data set [3] (30 mg/kg oral, given twice, measured at 60, 80, 100, 120 minutes, FIG. 1) is “statistically significant tail flick latency at 60 and 80 minutes”; in data set [3] (100 mg/kg oral, given twice, measured at 60, 80, 100, 120 minutes, FIG. 1), “statistically significant tail flick latency at 60 and 100 minutes”. Moreover, the “Licks per min (Between 0-10 min)” value in data set [4] (100 mg/kg oral BID, early phase) is 3.1 Licks per min; in data set [5] (375 mM topical BID (paw submerged), early phase), 4.0 Licks per min. Also, the “Licks per min (Between 10-40 min)” value in data set [4] (100 mg/kg oral BID, late phase) was 0.59 Licks per min; in data set [5] (375 mM topical BID (paw submerged), late phase), 1.1 Licks per min. In addition, the Duration of efficacy entry in data set [4] (100 mg/kg oral BID, after 40 minutes) is recorded as “did not last after 40 minutes”. The “Difference in the number of events vs control” value was “no statistically significant difference” in data set [4] (100 mg/kg oral BID, early phase 0-10 minutes) and “no statistically significant difference” in data set [5] (375 mM topical, early phase 0-10 minutes). In addition, the “Reduction in the number of events vs vehicle” value (shortened to “Reduction in the number”) in data set [4] (100 mg/kg oral BID, late phase 10-40 minutes) is given as “statistically significant (p<0.05) reduction”; in data set [5] (375 mM topical, late phase 10-40 minutes) it was “statistically significant (p<0.05) reduction”. In addition, the “Paw licking events after topical application alone” value in data set [5] (topical application without injection of formalin) is on record as “negligible number of paw licking events”. Moreover, in data set [6], the “Inhibition of pro-inflammatory cytokine release (IL-6, TNFα, IFNγ, MIP-2 and RANTES)” value is given as “effective in inhibiting pro-inflammatory cytokine release”.
Consider `CN1CC[C@]23c4c5ccc(O)c4O[C@H]2[C@@H](O)C=C[C@H]3[C@H]1C5` [Morphine, morphine, reference compound], for which the “Tail flick latency compared with vehicle-treated mice” value in data set [3] (mouse, in vivo) was “statistically significant tail flick latency at all measured time points”. In data set [4] (mouse, in vivo), the Duration of efficacy entry was “did not last after 40 minutes”, the “Licks per min (Between 0-10 min)” value is reported as 2.1 Licks per min, the “Licks per min (Between 10-40 min)” value is given as 0.47 Licks per min and the “Reduction in the number” value is “statistically significant (p<0.05) reductions”. In data set [5] (mouse, in vivo), the “Licks per min (Between 0-10 min)” value came out at 2.5 Licks per min, the “Licks per min (Between 10-40 min)” value was determined as 0.53 Licks per min and the “Reduction in the number” value is given as “statistically significant (p<0.05) reductions”.

For the origin of these results see patent publication US9149488B2, “Pharmaceutical composition and use of diethyl (2-cyanoethyl)phosphonate” (Olatec Industries LLC, priority 2013, dated 2015).
